Experimental data from patent US9290688B2, “Alkaline microbial enhanced oil recovery” (GEO FOSSIL FUELS, LLC, priority 2011, dated 2016).

System: Rhodococcus rhodochrous ATCC #53968
Assay: Digestion of Red River crude oil with and without beta-oxidation inhibitors; GC of methyl esters of extracted organic acids
Assay type: cell-based
Conditions: for Total GC (all peaks integrated by the GC integrator): 0.31 g oil sample; for conv. To umoles FA: approximately 1.0 micromoles per 100 area units; for Cal. AN (calculated acid number): estimated from GC areas
Procedure: An oil degrading microorganism was used to evaluate the use of chemical inhibitors to slow the utilization of hydrocarbons in petroleum. In a non-limiting example, three different chemical compounds that have been reported to inhibit beta-oxidation were tested in oil and culture medium on a petroleum sample with a strain of Rhodococcus rhodochrous ATCC #53968 in m9 minimal medium. To test the ability of each chemical inhibitor to slow the consumption of fatty acids a culture of bacteria was grown on a crude oil sample for a period of three days with crude petroleum oil as the only carbon source. Four separate flasks were set up, each with an oil to aqueous media ratio of 1 to 5 (10 ml of crude oil to 50 ml of culture medium). Each of the three chemical inhibitors was added to a separate flask and a fourth flask was allowed to digest without the addition of a chemical inhibitor as a control. The flasks were shaken at a room temperature of about 25° C. under aerobic conditions. The progress of the microbial digestion was monitored by the optical density at 600 nm and by visual inspection of the brown oil color in the aqueous phase. Three days after the addition of inhibitors, or a total of six days of incubation with oil, a small sample of oil (0.31 g) was removed. A second sample of the same size was remover after another 6 days. The organic acids were extracted from each oil sample with 1% NaOH in 70% ethanol. The samples were shaken vigorously for one minute. The aqueous extract material was then extracted with hexane to remove any trace of oil. The samples of extracted organic acids were then dried under vacuum and converted to methyl esters with BF3 in methanol.
The mixtures of methyl esters were analyzed by GC (gas chromatography) using a HP (Hewlett Packard) 5890 GC with an Agilent Technologies capillary column, HP-5 (crosslinked 5% PH) ME Siloxane 0.25 micrometer coating with a length of 30 meter and a column ID (internal diameter) of 0.32 mm. Helium was used as a carrier gas. Detection was by a FID detector and integration of peak areas was done with a HP 3396 integrator. The temperature program held an initial temperature of 40° C. for 1.0 minutes then increased at 15 degrees per minute to 280° C., and finally held at a temperature of 280° C. for 5 minutes. To quantify the amount of organic acids extracted by this procedure, a stock solution of 2-bromooctanoate and 2-bromohexadecanoate were added to a sample of undigested Red River crude petroleum oil and then extracted by the same procedure as the bio-digested oil samples. The average area for theses two organic acids was used to estimate the amount of organic acids in micromoles per area unit determined by the GC integrator. The number was calculated to be approximately 1.0 micromoles per 100 area units. The area units for each of the GC peaks are list in Table 2. This number was used to estimate the micromoles organic acids extracted from the oil. This estimate was used to calculate the number of mg of KOH that equaled the number of micromoles of organic acid estimated. This number is listed on the last row in Table 2 as the calculated AN (acid number) for each digestion experiment. These estimated numbers are only based on organic acids that are hydrophobic enough to stay in the oil phase and not move into the aqueous phase. Organic acids measured include the carboxylic acids made by the bacteria and that have been secreted out of the cell and have migrated back to the oil phase. They are also hydrocarbons that are small enough to be extracted into the ethanol aqueous extraction solvent. This number is likely to be less than the total acid number (TAN), a measure often used to evaluate crude petroleum for amenability to alkaline waterflooding.
The earlier eluting peaks are believed to represent methyl ester of lighter hydrocarbon carboxylic acids and the later eluting peaks are believed to represent methyl ester of the heavier organic acids. […]

[1] = 12 days, listed as acrylic acid

C=CC(=O)O [AA, acrylic acid]
GC peak area, retention time 4.5 (6 days): 0.242 area units | GC peak area, retention time 5.6 (6 days): 0.948 area units | GC peak area, retention time 6.6 (6 days): 2.856 area units | GC peak area, retention time 7.6 (6 days): 2.724 area units | GC peak area, retention time 8.2 (6 days): 0.703 area units | GC peak area, retention time 8.5 (6 days): 1.907 area units | GC peak area, retention time 9.4 (6 days): 1.575 area units | GC peak area, retention time 10.2 (6 days): 1.591 area units | GC peak area, retention time 11 (6 days): 2.134 area units | GC peak area, retention time 11.5 (6 days): 2.596 area units | GC peak area, retention time 11.7 (6 days): 2.416 area units | GC peak area, retention time 12.3 (6 days): 1.097 area units | GC peak area, retention time 12.5 (6 days): 4.385 area units | GC peak area, retention time 13 (6 days): 0.521 area units | GC peak area, retention time 13.1 (6 days): 1.769 area units | GC peak area, retention time 13.2 (6 days): 3.486 area units | GC peak area, retention time 13.4 (6 days): 1.122 area units | GC peak area, retention time 13.6 (6 days): 0.783 area units | GC peak area, retention time 13.8 (6 days): 2.448 area units | GC peak area, retention time 14 (6 days): 0.447 area units | GC peak area, retention time 14.2 (6 days): 0.78 area units | SubTotal peak area, later peaks eluting after 13 minutes (6 days): 11.356 area units | SubTotal peak area, peaks eluting before 13 minutes (6 days): 25.173 area units | Total GC area For 1 ml (6 days): 175 | Total of all selected peaks (6 days): 36.529 area units | Total GC (all peaks integrated by the GC integrator) (6 days): 54.17 area units | conv. To umoles FA (6 days): 1.75 µmol | Cal. AN (calculated acid number) (6 days): 0.098 mg of KOH | GC peak area, retention time 4.2 (12 days): 0.58 area units | GC peak area, retention time 4.5 (12 days): 1.051 area units | GC peak area, retention time 4.6 (12 days): 1.519 area units | GC peak area, retention time 5.6 (12 days): 2.754 area units | GC peak area, retention time 6.6 (12 days): 7.835 area units | GC peak area, retention time 7.6 (12 days): 5.761 area units | GC peak area, retention time 8.2 (12 days): 0.558 area units | GC peak area, retention time 8.5 (12 days): 3.369 area units | GC peak area, retention time 9.4 (12 days): 0.747 area units | GC peak area, retention time 10.2 (12 days): 0.588 area units | GC peak area, retention time 11 (12 days): 1.736 area units | GC peak area, retention time 11.5 (12 days): 2.968 area units | GC peak area, retention time 11.7 (12 days): 3.716 area units | GC peak area, retention time 12.3 (12 days): 2.722 area units | GC peak area, retention time 12.5 (12 days): 6.208 area units | GC peak area, retention time 12.7 (12 days): 1.6421 area units | GC peak area, retention time 13 (12 days): 1.99 area units | GC peak area, retention time 13.1 (12 days): 2.209 area units | GC peak area, retention time 13.2 (12 days): 4.801 area units | GC peak area, retention time 13.4 (12 days): 3.72 area units | GC peak area, retention time 13.6 (12 days): 2.005 area units | GC peak area, retention time 13.8 (12 days): 2.512 area units | GC peak area, retention time 14 (12 days): 2.548 area units | GC peak area, retention time 14.2 (12 days): 2.779 area units | SubTotal peak area, later peaks eluting after 13 minutes (12 days): 22.564 area units | SubTotal peak area, peaks eluting before 13 minutes (12 days): 43.754 area units | Total GC area For 1 ml (12 days): 291 | Total of all selected peaks (12 days): 66.318 area units | Total GC (all peaks integrated by the GC integrator) (12 days): 90.15 area units | conv. To umoles FA (12 days): 2.91 µmol | Cal. AN (calculated acid number) (12 days): 0.16 mg of KOH | SubTotal peak area, later peaks eluting after 13 minutes [1]: 22.5 area units | SubTotal peak area, peaks eluting before 13 minutes [1]: 43.7 area units

CCCCCCC(Br)C(=O)O (centres unmarked) [Br C8, 2-bromooctanoic acid]
GC peak area, retention time 4.5 (6 days): 0.351 area units | GC peak area, retention time 5.6 (6 days): 0.835 area units | GC peak area, retention time 6.6 (6 days): 2.783 area units | GC peak area, retention time 7.6 (6 days): 2.476 area units | GC peak area, retention time 8.2 (6 days): 0.682 area units | GC peak area, retention time 8.5 (6 days): 1.443 area units | GC peak area, retention time 9.4 (6 days): 1.146 area units | GC peak area, retention time 10.2 (6 days): 1.618 area units | GC peak area, retention time 11 (6 days): 2.608 area units | GC peak area, retention time 11.5 (6 days): 1.69 area units | GC peak area, retention time 11.7 (6 days): 3.004 area units | GC peak area, retention time 12.3 (6 days): 1.604 area units | GC peak area, retention time 12.5 (6 days): 4.566 area units | GC peak area, retention time 12.7 (6 days): 1.145 area units | GC peak area, retention time 13 (6 days): 1.421 area units | GC peak area, retention time 13.1 (6 days): 2.61 area units | GC peak area, retention time 13.2 (6 days): 3.047 area units | GC peak area, retention time 13.4 (6 days): 2.196 area units | GC peak area, retention time 13.6 (6 days): 1.314 area units | GC peak area, retention time 13.8 (6 days): 3.341 area units | GC peak area, retention time 14 (6 days): 1.661 area units | GC peak area, retention time 14.2 (6 days): 0.963 area units | SubTotal peak area, later peaks eluting after 13 minutes (6 days): 16.553 area units | SubTotal peak area, peaks eluting before 13 minutes (6 days): 25.951 area units | Total GC area For 1 ml (6 days): 250 | Total of all selected peaks (6 days): 42.504 area units | Total GC (all peaks integrated by the GC integrator) (6 days): 77.5 area units | conv. To umoles FA (6 days): 2.5 µmol | Cal. AN (calculated acid number) (6 days): 0.14 mg of KOH | GC peak area, retention time 4.2 (12 days): 0.47 area units | GC peak area, retention time 4.5 (12 days): 0.943 area units | GC peak area, retention time 5.6 (12 days): 1.656 area units | GC peak area, retention time 6.6 (12 days): 4.625 area units | GC peak area, retention time 7.6 (12 days): 3.349 area units | GC peak area, retention time 8.2 (12 days): 0.497 area units | GC peak area, retention time 8.5 (12 days): 1.763 area units | GC peak area, retention time 9.4 (12 days): 0.681 area units | GC peak area, retention time 10.2 (12 days): 0.387 area units | GC peak area, retention time 11 (12 days): 0.985 area units | GC peak area, retention time 11.5 (12 days): 3.548 area units | GC peak area, retention time 11.7 (12 days): 2.41 area units | GC peak area, retention time 12.3 (12 days): 2.973 area units | GC peak area, retention time 12.5 (12 days): 5.664 area units | GC peak area, retention time 13 (12 days): 2.785 area units | GC peak area, retention time 13.1 (12 days): 4.367 area units | GC peak area, retention time 13.2 (12 days): 7.327 area units | GC peak area, retention time 13.4 (12 days): 8.161 area units | GC peak area, retention time 13.6 (12 days): 4.176 area units | GC peak area, retention time 13.8 (12 days): 4.901 area units | GC peak area, retention time 14 (12 days): 4.709 area units | GC peak area, retention time 14.2 (12 days): 1.74 area units | SubTotal peak area, later peaks eluting after 13 minutes (12 days): 38.166 area units | SubTotal peak area, peaks eluting before 13 minutes (12 days): 31.453 area units | Total GC area For 1 ml (12 days): 373 | Total of all selected peaks (12 days): 69.619 area units | Total GC (all peaks integrated by the GC integrator) (12 days): 115.7 area units | conv. To umoles FA (12 days): 3.73 µmol | Cal. AN (calculated acid number) (12 days): 0.21 mg of KOH
